Test results reported in article PMC6440935, “Characterization and phase I study of CLR457, an orally bioavailable pan-class I PI3-kinase inhibitor” (Investigational New Drugs, 2018).

How the values were obtained:
[1] = system: Rat1-myr-p110δ tumors; experiment: Rat1-myr-p110δ tumor xenograft in nude mice; assay type: in vivo
Procedure: [13] […] [13] […] CLR457 antitumor activity was then evaluated as described previously. […] (Supplemental Methods).
The significant level was set at p < 0.05.

[2] = biological target: PIK3CA H1047R (kinase domain mutation) (Homo sapiens, UniProt P42336, H1047R); experiment: In vitro profiling, PIK3CA mutant isoform H1047R; assay type: biochemical; conditions: data not shown
[3] = biological target: PIK3CA E545K (helical domain mutation) (Homo sapiens, UniProt P42336, E545K); experiment: In vitro profiling, PIK3CA mutant isoform E545K; assay type: biochemical; conditions: data not shown
[4] = biological target: p110γ (Homo sapiens, UniProt P48736); experiment: In vitro PI3K biochemical assay, p110γ
[5] = system: Rat1-myr-p110α tumors
Procedure: To evaluate antitumor activity in vivo, three xenograft models were utilized: Rat1-myr-p110α, Rat1-myr-p110δ, and HBRX2524. For Rat1-myr-p110α and Rat1-myr-p110δ, Rat1 fibroblasts were transfected with an N-terminal myristoylated form of PI3Kα or PI3Kδ isoform, which led to constitutive activation of the PI3K pathway. […] Tumor xenografts were then grown subcutaneously in nude mice or nude rats by injection of 2 to 3 × 10^6 cells into the right flank (for Rat1-myr-p110α and Rat1-myr-p110δ). For HBRX2524, a patient-derived breast cancer tumor bearing the H1047R PIK3CA activating mutation was established by subcutaneously implanting resected patient tumor samples in nude mice without any in vitro manipulations.
For the preclinical studies, absolute values for primary tumor growth and body weight were used to make the statistical comparisons between groups (one way analysis of variance [ANOVA] test followed by Dunnett’s test for normally distributed data; ANOVA on ranks for not normally distributed data followed by Dunnett’s test for equal group size or Dunn’s for unequal group size). The significant level was set at p < 0.05.
Female nude Rowett rats Hsd: RH-Fox1rnu were obtained from Harlan (Netherlands) and female Hsd: Athymic Nude-nu CPB mice were obtained from Harlan Winkelmann, Germany.

[6] = biological target: p110δ (Homo sapiens, UniProt O00329); experiment: In vitro PI3K biochemical assay, p110δ
[7] = system: glucose and insulin; experiment: First-in-human phase I study: pharmacodynamic markers glucose and insulin; assay type: in vivo; conditions: 100 mg QD; not clinically significant
Procedure: At the dose of 100 mg QD, there was an increase in the pharmacodynamic markers glucose and insulin, consistent with that observed in the preclinical models, however this increase was not clinically significant (CTCAE grade ≤ 2) (Fig. 3) and was within the range of expected changes based on preclinical data (Fig. 2).

Sequence of PIK3CA E545K (helical domain mutation) (P42336 21-1068 E545K limits assumed): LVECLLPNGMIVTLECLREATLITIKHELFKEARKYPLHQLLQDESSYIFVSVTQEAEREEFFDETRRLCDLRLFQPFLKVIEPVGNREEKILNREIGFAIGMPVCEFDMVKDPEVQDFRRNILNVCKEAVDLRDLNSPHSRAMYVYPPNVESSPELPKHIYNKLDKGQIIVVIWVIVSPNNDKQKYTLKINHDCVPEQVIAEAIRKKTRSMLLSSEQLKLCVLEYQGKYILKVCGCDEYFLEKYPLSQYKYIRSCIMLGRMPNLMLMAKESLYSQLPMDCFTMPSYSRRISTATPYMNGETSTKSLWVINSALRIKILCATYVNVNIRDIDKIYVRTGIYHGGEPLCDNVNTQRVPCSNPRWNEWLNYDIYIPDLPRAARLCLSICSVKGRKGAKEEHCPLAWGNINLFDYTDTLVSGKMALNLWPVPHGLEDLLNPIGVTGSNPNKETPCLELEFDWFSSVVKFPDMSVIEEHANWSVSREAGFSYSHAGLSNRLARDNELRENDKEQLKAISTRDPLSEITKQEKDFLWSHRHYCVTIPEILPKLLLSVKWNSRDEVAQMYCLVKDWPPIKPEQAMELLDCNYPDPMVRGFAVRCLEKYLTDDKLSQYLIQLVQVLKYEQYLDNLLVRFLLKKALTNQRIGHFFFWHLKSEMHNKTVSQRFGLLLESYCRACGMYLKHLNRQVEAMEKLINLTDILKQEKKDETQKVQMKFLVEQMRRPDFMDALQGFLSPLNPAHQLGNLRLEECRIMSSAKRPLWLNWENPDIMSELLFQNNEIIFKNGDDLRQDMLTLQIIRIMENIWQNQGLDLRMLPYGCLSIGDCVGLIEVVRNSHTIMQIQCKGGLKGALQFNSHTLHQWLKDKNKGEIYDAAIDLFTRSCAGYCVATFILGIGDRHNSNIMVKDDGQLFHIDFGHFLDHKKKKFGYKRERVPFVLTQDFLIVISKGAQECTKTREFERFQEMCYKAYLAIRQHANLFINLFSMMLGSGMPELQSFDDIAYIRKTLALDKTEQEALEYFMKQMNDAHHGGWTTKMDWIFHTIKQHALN
Sequence of PIK3CA E545K (helical domain mutation) (P27986 461-568 partner limits assumed): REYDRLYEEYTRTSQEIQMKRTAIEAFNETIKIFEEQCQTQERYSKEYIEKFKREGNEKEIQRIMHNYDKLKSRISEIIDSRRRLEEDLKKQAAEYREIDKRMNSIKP
Sequence of PIK3CA H1047R (kinase domain mutation) (P42336 21-1068 H1047R limits assumed): as the sequence (P42336 21-1068 E545K limits assumed) above, with K525E, H1027R counted along it
Sequence of PIK3CA H1047R (kinase domain mutation) (P27986 461-568 partner limits assumed): as the sequence (P27986 461-568 partner limits assumed) above
Sequence of p110γ (P48736 whole entry): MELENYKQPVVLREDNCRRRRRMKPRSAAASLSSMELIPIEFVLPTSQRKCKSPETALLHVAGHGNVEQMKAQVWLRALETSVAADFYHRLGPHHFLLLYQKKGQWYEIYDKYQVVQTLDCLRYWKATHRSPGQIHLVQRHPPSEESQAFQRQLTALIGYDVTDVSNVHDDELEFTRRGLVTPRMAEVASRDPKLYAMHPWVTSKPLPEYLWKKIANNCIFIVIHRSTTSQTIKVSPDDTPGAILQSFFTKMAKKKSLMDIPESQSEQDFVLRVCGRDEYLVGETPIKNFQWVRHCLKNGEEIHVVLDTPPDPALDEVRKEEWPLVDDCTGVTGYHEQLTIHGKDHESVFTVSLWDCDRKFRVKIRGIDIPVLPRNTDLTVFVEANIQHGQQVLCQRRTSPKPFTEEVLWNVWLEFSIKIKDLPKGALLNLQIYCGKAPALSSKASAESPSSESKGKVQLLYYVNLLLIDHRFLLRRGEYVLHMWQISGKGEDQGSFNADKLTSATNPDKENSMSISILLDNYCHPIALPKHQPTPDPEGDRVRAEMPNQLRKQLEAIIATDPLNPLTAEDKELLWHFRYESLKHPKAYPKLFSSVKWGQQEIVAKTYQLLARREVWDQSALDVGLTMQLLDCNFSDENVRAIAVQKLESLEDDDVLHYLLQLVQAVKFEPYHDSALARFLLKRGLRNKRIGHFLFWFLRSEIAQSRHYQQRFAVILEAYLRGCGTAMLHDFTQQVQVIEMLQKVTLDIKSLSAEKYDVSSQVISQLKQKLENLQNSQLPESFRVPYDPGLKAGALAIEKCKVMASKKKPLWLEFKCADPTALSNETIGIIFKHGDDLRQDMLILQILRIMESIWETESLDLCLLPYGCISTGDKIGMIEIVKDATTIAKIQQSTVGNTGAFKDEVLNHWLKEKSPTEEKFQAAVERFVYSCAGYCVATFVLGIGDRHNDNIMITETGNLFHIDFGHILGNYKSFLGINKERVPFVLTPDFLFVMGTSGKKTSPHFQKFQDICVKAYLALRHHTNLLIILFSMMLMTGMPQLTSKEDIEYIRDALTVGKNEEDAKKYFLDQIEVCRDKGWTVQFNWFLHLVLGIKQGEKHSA
Sequence of p110δ (O00329 2-1044 limits assumed): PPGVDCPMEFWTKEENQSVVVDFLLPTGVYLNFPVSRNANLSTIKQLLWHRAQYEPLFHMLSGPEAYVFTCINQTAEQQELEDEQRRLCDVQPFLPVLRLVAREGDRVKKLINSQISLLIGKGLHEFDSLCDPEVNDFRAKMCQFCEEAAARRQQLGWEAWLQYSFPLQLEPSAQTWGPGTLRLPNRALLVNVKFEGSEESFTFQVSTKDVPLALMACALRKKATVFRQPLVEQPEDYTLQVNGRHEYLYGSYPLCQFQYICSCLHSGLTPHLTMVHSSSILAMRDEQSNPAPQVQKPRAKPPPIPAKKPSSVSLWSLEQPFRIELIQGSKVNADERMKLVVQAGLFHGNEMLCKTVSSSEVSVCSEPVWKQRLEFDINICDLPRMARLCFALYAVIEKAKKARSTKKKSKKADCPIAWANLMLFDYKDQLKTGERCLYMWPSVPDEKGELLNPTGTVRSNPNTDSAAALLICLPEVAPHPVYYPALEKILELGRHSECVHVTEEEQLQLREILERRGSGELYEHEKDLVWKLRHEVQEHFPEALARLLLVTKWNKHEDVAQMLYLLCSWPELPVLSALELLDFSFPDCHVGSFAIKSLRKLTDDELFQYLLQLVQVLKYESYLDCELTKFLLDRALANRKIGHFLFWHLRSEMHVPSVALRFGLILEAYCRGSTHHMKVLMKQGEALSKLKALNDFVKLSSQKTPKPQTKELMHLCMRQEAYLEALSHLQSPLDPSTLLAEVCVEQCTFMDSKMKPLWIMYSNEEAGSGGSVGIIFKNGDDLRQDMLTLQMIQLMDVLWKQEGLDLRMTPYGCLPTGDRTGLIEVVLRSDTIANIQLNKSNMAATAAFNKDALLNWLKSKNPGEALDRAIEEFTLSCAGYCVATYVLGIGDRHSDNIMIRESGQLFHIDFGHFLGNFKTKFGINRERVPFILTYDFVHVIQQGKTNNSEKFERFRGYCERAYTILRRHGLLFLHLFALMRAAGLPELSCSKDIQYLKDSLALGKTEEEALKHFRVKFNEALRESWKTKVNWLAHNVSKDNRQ
Sequence of p110δ (P27986 461-568 partner limits assumed): as the sequence (P27986 461-568 partner limits assumed) above

Q: How did the “Dose at which tumor regression occurred” value [1] turn out when `C[C@H]1OC(=O)N(c2cc(-c3cnc(N)nc3C(F)(F)F)nc(N3CCOCC3)n2)[C@H]1CO` [CLR457] was run?
A: Its value is 20 mg/kg BID.

Q: What about the “Inhibition of PIK3CA mutant isoform H1047R” value [2] of the same molecule?
A: Its value is “inhibited”.

Q: What about the “Inhibition of PIK3CA mutant isoform E545K” value [3] of the same molecule?
A: Its value is “inhibited”.

Q: What about the IC50 [4] of the same molecule?
A: The IC50 was 230 ± 31 nM.

Q: And the Antitumor activity ([5]; 3, 10, 30, 60 mg/kg QD and 30 mg/kg BID oral)?
A: The Antitumor activity was “dose proportional antitumor activity”.

Q: And the “Dose at which tumor regression was observed” value ([5]; oral)?
A: Its value is at least 30 mg/kg QD.

Q: What about the IC50 [6] of the same molecule?
A: The IC50 was 39 ± 10 nM.

Q: And the “CTCAE grade of increase in glucose and insulin” value [7]?
A: Its value is at most 2.
